Source: patent US6291247A, “Methods of screening for factors that disrupt neurotrophin conformation and reduce neurotrophin biological activity” (priority 1996, dated 2001)

What was measured:
p75^NTR and TrkA [1] = target: T1, p75^NTR and TrkA (Mus musculus, UniProt P01139); assay: Binding of 125I-NGF to PC12 cells (p75NTR + TrkA); design: species or system rat; settings: 120 min; for steady-state specific binding of 125I-NGF (0.5 nM) to p75NTR and TrkA: ± SEM
T1 construct: these cells express both NGF receptor types; endogenous in cells; host or cells: PC12 rat pheochromocytoma cells
Description: (§1) PC12 cells were grown in RPMI with 10% heat inactivated donor horse serum and 5% fetal calf serum. […] The tubes were incubated for 2 hr at 4° C. and 100 μl aliquots (providing triplicate data points for each sample) were transferred to 400 μl microcentrifuges containing 200 μl of 10% glycerol in HKR. Tubes were centrifuged for 2 minutes at 5,000 rpm, the tip containing the cell pellet cut off and radioactivity bound to the cells was determined.

p75^NTR and TrkA [2] = tested on: T2, p75^NTR and TrkA; assay: Binding of 125I-NGF to PC12 cells (p75NTR + TrkA); design: species or system rat; settings: for Inhibition of 125I-NGF binding: 100 μM, CaEDTA together with Zn2+
T2 construct: these cells express both NGF receptor types; endogenous in cells; host or cells: PC12 rat pheochromocytoma cells
Description: as §1

NGF = target: T3, NGF (Mus musculus, UniProt P01139); assay: NGF protomer crosslinking with BS3 (NGF conformation), metal ions; type: biochemical; settings: for NGF monomer crosslinking by BS3: 0.1 nM 125I-NGF, CaEDTA together with Zn2+
T3 construct: homodimer
Description: For crosslinking NGF […], 0.4 mM BS^3 was added to the mixture and incubated for 30 minutes at 25° C. […] For CD studies, NGF (50 μg/ml) was dissolved in 50 mM Tris-HCl buffer and spectra recorded using a computer controlled Jasco J-600 spectropolarimeter. Samples were acquired in the absence or presence of Zn^2+ (100 μM) at 22° C. in a 2 mm quartz cell averaged over eight scans. Modification of His residues by DEPC was carried out as previously described, where the molar excess of DEPC added and the extent of reaction was determined by evaluating the loss of binding activity of the modified product.

DRG neurons = assay: NGF-mediated neurite outgrowth of DRG neurons, metal ions; type: cell-based, chick; settings: 100 μM
Description: Dissosiated cells enriched for sensory neurons were prepared from ED8 chick DRG as described (Dostaler, S. M. et al. Characterization of a distinctive motif of the low molecular weight neurotrophin receptor that modulates NGF-mediated neurite growth. Eur. J. Neurosci. 8, 870-879 (1996)). Neurons were seeded at a density of 800-1000 cells/well in Ham's F-12 containing 5% FCS and NGF at 10 pM into wells of Terasaki plates treated with polyysine. The cells were incubated with the indicated additives at 37° C. in a 5% CO2 atmosphere. The cells on the entire lower horizontal surface of the well were scored for neurite growth at 18-20 hours using an inverted microscope fitted with phase contrast optics. A neurite was scored if its caliber from the origin to terminal was constant and its length was equal to or greater than 1.5 cell body diameters. Neurite growth was corrected for background (no NGF).

PC12 cells [3] = assay: NGF-dependent survival of PC12 cells; type: cell-based, rat; settings: for NGF-mediated survival of PC12 cells: serum-free, CaEDTA together with Zn2+
Description: (§2) Effects of divalent ions on NGF mediated survival and toxicity was evaluated using a colorimetric assay for the lysosomal enzyme acid phosphatase to determine cell number (Connolly, D. T., Knight, M. B., Harakas, N. K, Wittwer, A. J. & Feder, J. Determination of the number of endothelial cells in culture using an acid phosphatase assay. Anal. Biochem. 152, 136-140 (1986); Ueda, Y., Walsh, E., Nakanishi H. & Yoshida, K. A. colorometric assay method for the evaluation of neurotrophic activity in vitro. Neurosci. Lett. 165, 203-207 (1994)). […] To evaluate toxicity, the cells were seeded and maintained without NGF in RPMI with 10% heat inactivated donor horse serum and 5% fetal calf serum in the presence of additives. Loss in viable cell number was determined and expressed as a percent of control. NGF rescues PC12 cells from cell death in serum-free medium(Greene, L. A. Nerve growth factor prevents the death and stimulates neuronal differentiation of clonal PC12 pheochromocytoma cells in serum-free medium. J. Cell Biol. 78, 747-755 (1978)). NGF-dependent survival was assessed by harvesting PC12 cells in balanced salt solution followed with washing by 4 cycles of suspension and centrifugation in serum-free RPMI prior to seeding in 96 well plates. After incubation with additives, medium was removed from the wells and cells washed once with 200 μl PBS. Buffer containing 0.1M sodium acetate pH 5.5, 0.1% Triton X-100 and 10 mM p-nitrophenyl phosphate (Sigma 104 phosphatase substrate) was added to each well (100 μl). Plates were incubated at 37° C. for 3 hours. The reaction was stopped by the addition of 10 μl/well of 1N sodium hydroxide and the color development measured at 405 nm using a microplate reader. The relationship between cell number and enzyme activity was linear over the range 1000 to 15,000 cells.
(§3) To explore the ability of other transition metals to influence the biological activities of NGF, a series of cations known to mimic in certain respects the binding of zinc to proteins were tested. […] For this reason these ions were not tested in NGF- dependant growth phenomena. […] As these studies appeared to indicate potentially complex results upon metal ions binding to NGF, a receptor crosslinking system where specific receptor types could be identified was utilized.

PC12 cells [4] = assay: Toxicity to PC12 cells; type: cell-based, rat; settings: for Toxicity (PC12 cell viability): 100 μM
Description: as §2, §3

TrkA receptor = assay: NGF-dependent TrkA phosphorylation in PC12 cells, metal ions; type: cell-based, rat; settings: for NGF-induced TrkA phosphorylation: 100 μM, PC12 cells
Description: Zn^2+ and/or other additives were allowed to equilibrate with NGF for 2 hours at 4° C. prior to addition of cells. PC12 cells were used at 10^6 cells/ml and incubated with 40 pM NGF for 15 minutes at 37° C. At the conclusion of the reaction, cells were washed, lysed in TBS containing 10% glycerol, 1% Triton X-100, 1 mM PMSF, 10 μg/ml aprotinin, 1 μg/ml leupeptin and 500 μM orthovanadate (lysis buffer, 10^8 cells/ml). The cellular debris was removed by centrifugation and the soluble proteins incubated with an anti-TrkA cytoplasmic domain antibody. Antibody complexes were isolated by incubating with immobilized protein G (Pierce Ultralink; 70 μl of a 50% slurry) for 2 hours at 4° C. The solid phase was washed extensively with lysis buffer and the pellet dissolved in SDS sample buffer. Proteins were resolved using 6% SDS PAGE and Western analysis performed with anti-phosphotyrosine 4G10 (UBI) visualized with ECL (Amersham).

p75^NTR /TrkA [5] = target: p75^NTR /TrkA (Mus musculus, UniProt P01139); assay: Receptor crosslinking of 125I-NGF with transition metal ions (receptor selectivity); type: binding; settings: 100 μM
Description: as §3

p75^NTR /TrkA [6] = assay: as above; type: binding
Description: as §3

PC12 cells [7] = assay: Toxicity to PC12 cells; type: cell-based, rat
TrkA = tested on: T4, TrkA; assay: Binding of 125I-NGF to TrkA on PC12 cells (p75NTR blocked with BDNF); design: species or system rat; settings: 100 μM CaEDTA with 100 μM Zn2+; 40 nM BDNF; ± SEM; 120 min
T4 construct: Receptor cross-linking studies were performed on PC12 rat pheochromocytoma cells; endogenous in cells; host or cells: PC12 rat pheochromocytoma cells (ATCC CRL 1721)
Description: as §1

T3 sequence (P01139 122-239): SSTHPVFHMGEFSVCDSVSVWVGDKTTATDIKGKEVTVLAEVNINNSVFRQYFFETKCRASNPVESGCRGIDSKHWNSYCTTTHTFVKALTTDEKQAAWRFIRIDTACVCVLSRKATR
T2 sequence (P01139 122-239): as above
T1 sequence (P01139 122-239): as above
Sequence of p75^NTR /TrkA (P01139 122-239): as above
Sequence of p75^NTR /TrkA (P07174 30-425 partner): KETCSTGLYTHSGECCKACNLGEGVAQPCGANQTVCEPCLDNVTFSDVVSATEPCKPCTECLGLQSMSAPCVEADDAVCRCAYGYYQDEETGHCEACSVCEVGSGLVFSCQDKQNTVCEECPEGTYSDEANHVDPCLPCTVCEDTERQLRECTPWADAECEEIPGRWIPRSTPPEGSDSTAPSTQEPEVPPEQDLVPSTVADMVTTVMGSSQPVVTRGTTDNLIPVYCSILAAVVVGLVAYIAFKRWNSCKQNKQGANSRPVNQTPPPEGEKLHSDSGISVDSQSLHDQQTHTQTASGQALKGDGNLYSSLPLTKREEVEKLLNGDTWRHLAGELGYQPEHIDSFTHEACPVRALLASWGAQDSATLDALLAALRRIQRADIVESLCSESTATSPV
Sequence of p75^NTR /TrkA (P35739 33-799 partner): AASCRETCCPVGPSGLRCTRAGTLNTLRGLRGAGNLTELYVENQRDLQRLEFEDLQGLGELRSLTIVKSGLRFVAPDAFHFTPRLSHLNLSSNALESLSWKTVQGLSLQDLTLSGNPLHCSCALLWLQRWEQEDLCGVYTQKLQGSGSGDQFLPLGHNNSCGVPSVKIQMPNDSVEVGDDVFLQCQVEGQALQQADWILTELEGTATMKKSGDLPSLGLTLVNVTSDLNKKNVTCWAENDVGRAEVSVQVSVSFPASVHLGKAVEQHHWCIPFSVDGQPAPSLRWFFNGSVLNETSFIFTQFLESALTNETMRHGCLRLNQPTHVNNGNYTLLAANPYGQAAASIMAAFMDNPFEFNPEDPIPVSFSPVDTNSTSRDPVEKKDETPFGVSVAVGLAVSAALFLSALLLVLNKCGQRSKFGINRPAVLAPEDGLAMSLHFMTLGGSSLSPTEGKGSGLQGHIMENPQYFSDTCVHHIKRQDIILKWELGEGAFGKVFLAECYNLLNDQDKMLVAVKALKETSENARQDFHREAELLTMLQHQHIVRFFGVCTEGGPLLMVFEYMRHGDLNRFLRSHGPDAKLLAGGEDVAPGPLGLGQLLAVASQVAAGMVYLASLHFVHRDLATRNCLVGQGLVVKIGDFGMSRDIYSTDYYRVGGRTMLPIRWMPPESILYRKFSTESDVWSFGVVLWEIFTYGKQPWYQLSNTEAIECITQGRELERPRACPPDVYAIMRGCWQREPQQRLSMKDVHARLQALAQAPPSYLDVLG
Sequence of p75^NTR /TrkA (Mus musculus, UniProt P01139) (P01139 122-239): as the sequence (P01139 122-239) above
Sequence of p75^NTR /TrkA (Mus musculus, UniProt P01139) (P07174 30-425 partner): as the sequence (P07174 30-425 partner) above
Sequence of p75^NTR /TrkA (Mus musculus, UniProt P01139) (P35739 33-799 partner): as the sequence (P35739 33-799 partner) above
T4 sequence (P01139 122-239): as the sequence (P01139 122-239) above

With `[Mg+2]` [Mg^2+, reference compound] the “steady-state specific binding of 125I-NGF (0.5 nM) to p75NTR and TrkA” value (p75^NTR and TrkA [1]; 100 μM) was 88 ± 13 % Control, the “Inhibition of 125I-NGF binding” value (p75^NTR and TrkA [2]) was “neither Ca^2+ nor Mg^2+ displayed significant inhibition” and the “NGF monomer crosslinking by BS3” value (NGF) was “no effect on crosslinking efficiency”. For the same compound, the NGF-induced neurite extension (DRG neurons) was “no effect”, the “NGF-mediated survival of PC12 cells” value (PC12 cells [3]; 100 μM) was “no effect” and the “Toxicity to PC12 cells” value (PC12 cells [4]; in presence of serum, up to 100 μM) was “not toxic”. For the same compound, the “NGF-induced TrkA phosphorylation” value (TrkA receptor) was “not detected”.
For `[Ni+2]` [Ni^2+], the “Total Binding to PC12 cells” value (p75^NTR and TrkA [1]; 100 μM, 125I-NGF) was 69 ± 18 % control, the “Prevention of 125I-NGF binding to PC12 cells” value (p75^NTR and TrkA [2]) was “did not show appreciable inhibition” and the “Effect on conformation of NGF in protomer crosslinking” value (NGF) was “did not appear to have an effect on the conformation”. The “NGF Protomer Conformation (active/inactive)” value (NGF; 100 μM) was “inactive”, the “Survival @ 50 pM NGF” value (PC12 cells [3]; 100 μM, 50 pM NGF) was 15 ± 13 % control and the “Survival @ 1 nM NGF” value (PC12 cells [3]; 100 μM, 1 nM NGF) was 23 ± 10 % control. The “Antagonism of NGF-dependent survival” value (PC12 cells [3]; high (1 nM) or low (50 pM) NGF) was “ability to antagonize the NGF-dependant survival”, the “Toxicity (PC12 cell viability)” value (PC12 cells [4]) was 100 ± 19 % control and the “Receptor Selectivity (p75NTR/TrkA)” value (p75^NTR /TrkA [5]) was “TrkA only”. The “Blocking of NGF binding to TrkA and p75NTR in receptor crosslinking” value (p75^NTR /TrkA [6]) was “selective for blocking the binding of NGF to TrkA but did not prevent the binding of NGF to p75^NTR”.
`[Cd+2]` [Cd^2+] was tested, and the “Toxicity (PC12 cell viability)” value (PC12 cells [4]) was 63 ± 10 % control and the “Toxicity to PC12 cells in serum-free conditions” value (PC12 cells [7]) was “toxic to PC12 cells”.
For `O=C([O-])CN(CCN(CC(=O)[O-])CC(=O)[O-])CC(=O)[O-].[Ca+2].[Na+].[Na+]` [CaEDTA, reference compound], the “steady-state specific binding of 125I-NGF (0.5 nM) to p75NTR and TrkA” value (p75^NTR and TrkA [1]; 100 μM CaEDTA with 100 μM Zn2+) was 78 ± 19 % Control, the “Inhibition of 125I-NGF binding” value (p75^NTR and TrkA [2]) was “Inhibitory effects of Zn^2+ could also be prevented” and the “steady-state specific binding of 125I-NGF (0.5 nM) to TrkA” value (TrkA) was 87 ± 13 % Control. The “NGF monomer crosslinking by BS3” value (NGF) was “prevented the Zn^2+ effects”, the “NGF-mediated survival of PC12 cells” value (PC12 cells [3]; 100 μM) was “reversed” and the “NGF-induced TrkA phosphorylation” value (TrkA receptor) was “Neither Ca^2+, Mg^2+ nor CaEDTA had a significant effect”. The “Reversal of Zn2+ inhibition of TrkA phosphorylation” value (TrkA receptor; CaEDTA 100 μM with Zn2+ 100 μM) was “reversed by CaEDTA”.
